According to paper PMC9081605, “A High-Throughput Toxicity Screen of 42 Per- and Polyfluoroalkyl Substances (PFAS) and Functional Assessment of Migration and Gene Expression in Human Placental Trophoblast Cells” (Frontiers in Toxicology, 2022):

Experiments:
Format in all cases: cell-based, human
JEG-3 cells [1] = assay: CellTiter-Glo luminescent cell viability assay (HTTS); settings: for EC50: four-parameter fit, estimates meeting inclusion criteria; for Viability ↑, lowest concentration at which the mean response value exceeded the mean control value ± 2*SD (rough binning): increase; for cell viability relative to vehicle control (rough binning): after 24 h, in at least one concentration
Description: (§1) JEG-3 human choriocarcinoma trophoblastic cells (American Type Culture Collection, VA, United States) were maintained in sterile-filtered Minimum Essential Media (MEM) supplemented with L-glutamine and phenol red (Thermo Fisher Scientific, MA, United States), 10% (v/v) heat-inactivated BenchMark Fetal Bovine Serum (Gemini Bio, CA, United States), 1% (v/v) sodium pyruvate (Thermo Fisher Scientific, MA, United States), and 1% (v/v) penicillin streptomycin (Sigma Aldrich, MO, United States). Cells were maintained in an incubator at 37°C with 5% CO2. JEG-3 cells were cultured in 10 cm tissue culture plates and cell passage numbers were recorded.
(§2) A total of 42 perfluoroalkyl substances (PFAS) were evaluated (Supplementary Table S1 contains source and purity). PFAS stock solutions were maintained in 100% methanol as previous work has shown certain PFAS degrade when stored in dimethyl sulfoxide (DMSO; [Gaballah et al., 2020]). […] The vehicle control group consisted of 97.5% media + 2.5% methanol to match the concentration of methanol in the media at the highest PFAS concentration tested (500 µM). Menadione (50–500 µM) was used as a positive control for cytotoxicity assessment. PFAS were de-identified and assigned random numbers to eliminate bias. Chemical exposure plate maps were designed so that all experimental conditions were tested in at least technical duplicates per plate. The outer edges of each plate received media alone and were excluded from all analyses to avoid edge effects. Each plate map included 14 technical replicates of the vehicle control group and 14 technical replicates of media only. Biological replicates were defined as separate 384 well plates tested on separate days using different cell passages. The experimental workflow is depicted in Supplementary Figure S1.
(§3) JEG-3 cells were counted using a Z2 Coulter Particle Counter (Beckman Coulter, CA, United States) and seeded at a density of 2,500 cells per well in black-walled, clear bottom 384 well plates (Corning, #3764) and allowed to adhere overnight. Approximately 24 h later, 384 well plates were imaged using an IncuCyte Zoom live cell imager (Essen BioScience Inc., MI, United States) to obtain baseline cellular confluence measurements prior to chemical dosing (0 h). Media was removed from wells and replaced with fresh media containing chemical treatments (exposure media) using a Viaflo liquid handling device (Integra Biosciences, NH, United States). Within 30 min of exposure media application, plates were again imaged for cellular confluence using the IncuCyte Zoom. Plates were incubated with exposure media for 24 h and then imaged again using the IncuCyte Zoom (24 h).
In the same plate evaluated for mitochondrial membrane potential, cell viability measures were duplexed using the CellTiter-Glo (CTG) Luminescent Cell Viability Assay (Promega, WI, United States). CTG reagent was added to each well at a volume of 20 µl. The plate was left at room temperature to incubate for 5 min and then 20 µl from each well was transferred to a low-volume, round-bottom, white 384 well plate (Corning, NY, United States). The CTG reagent lyses cellular and mitochondrial membranes and binds to adenosine triphosphate (ATP) released by cells, which produces a luminescence signal. The intensity of the luminescence was considered a proxy measure for the number of live cells in a well. The luminescence intensities were measured using the CLARIOstar plate reader.
HTTS data were analyzed using a custom data analysis script in R v 1.2.5019 ([R Core Team, 2019]). Briefly, raw data points corresponding to the confluence measurements at 0 and 24 h, the fluorescence intensities corresponding to MMP, and the relative luminescence units (RLU) corresponding to cell viability were imported directly from Microsoft Excel into the R programming environment, RStudio. Separate plates run on separate days using different JEG-3 passages were considered as biologic replicates. […]

JEG-3 cells [2] = assay: Mitochondrial membrane potential, JC-10 assay (HTTS); settings: for EC50: JEG-3 cells
Description: as §1, §2, §3
The JC-10 assay (Enzo Life Sciences, NY, United States) was used to evaluate mitochondrial membrane potential, the main bioenergetic parameter that regulates respiratory rate, ATP synthesis and reactive oxygen species generation. In cells with polarized mitochondrial membranes, the JC-10 dye localizes to the mitochondrial matrix and forms red fluorescent aggregates (540/590 nm). In cells with depolarized mitochondrial membranes, the JC-10 dye localizes in the cytoplasm and converts to a green fluorescent monomer (490/525 nm). Mitochondrial membrane potential was calculated as the ratio of the green and red fluorescence intensities within a well.
At the end of the 24 h exposure period, exposure media was removed from the plate. The plate wells were then washed with 1x phosphate buffered saline (1x PBS). After washing, the JC-10 reagent was suspended in fresh 1x PBS and 20 µl was added to each well at a final concentration of 20 μM (Enzo Life Sciences, NY, United States). The plate was incubated for 1 h at 37°C, and the fluorescence intensities at excitation/emission wavelengths of 490/525 nm and 540/590 nm were measured using a CLARIOstar (BMG Labtech, Offenburg, Germany) plate reader, respectively.
HTTS data were analyzed using a custom data analysis script in R v 1.2.5019 ([R Core Team, 2019]). […]

JEG-3 cells [3] = assay: Proliferation, change in confluence 0-24 h (IncuCyte Zoom, HTTS); settings: for Prolif ↓, lowest concentration at which the mean response value exceeded the mean control value ± 2*SD (rough binning) / Prolif ↑, lowest concentration at which the mean response value exceeded the mean control value ± 2*SD (rough binning): 24 h; for Prolif ↓, lowest concentration at which the mean response value exceeded the mean control value ± 2*SD (rough binning): decrease; for cellular proliferation relative to vehicle control (rough binning): after 24 h, in at least one concentration; for Prolif ↑, lowest concentration at which the mean response value exceeded the mean control value ± 2*SD (rough binning): increase
Description: as §1, §2, §3
Plate well bottom images were evaluated using automated cell masking. The automated cell masking program was developed using IncuCyte Zoom base software. Cell masking parameters were defined using a training set of JEG-3 cell images obtained prior to conducting the experiments and following IncuCyte Zoom software recommendations. Briefly, the training images were obtained from cell culture plates with varying levels of JEG-3 cellular confluence (ranging from ∼15% confluent to ∼95% confluent). Parameters for the automated cell masking were first manually set by an experimenter for 3-6 images of low (∼15–30%), medium (∼30–70%), and high confluence (∼70% or greater). The training images were then evaluated by the automated masking program and manually checked to ensure the parameters were sufficiently strict to ignore background (e.g., blank space on the plate well bottom) but adequately sensitive to detect cell borders. The masking program was then implemented on the experimental plates to obtain a baseline cellular confluence measurement at 0 h and a second confluence measurement at 24 h. […]

[4] = JEG-3 cells, 24 h exposure, read-out: Viability EC50 ± SD
[5] = 24 h exposure, four-parameter fit, estimates meeting inclusion criteria, read-out: MMP EC50 ± SD
[6] = JEG-3 cells, 24 h exposure, four-parameter fit, estimates meeting inclusion criteria, read-out: Proliferation EC50 ± SD

Molecule	EC50 (JEG-3 cells [1]; [4])	cell viability relative to vehicle control (rough binning) (JEG-3 cells [1])	EC50 (JEG-3 cells [3]; [6])	cellular proliferation relative to vehicle control (rough binning) (JEG-3 cells [3])	Prolif ↑, lowest concentration at which the mean response value exceeded the mean control value ± 2*SD (rough binning) (JEG-3 cells [3]; JEG-3 cells)	also measured
6:2 Fluorotelomer alcohol	415 ± 70.6 µM	–	–	–	–	EC50 (JEG-3 cells [2]; 24 h, read-out: MMP EC50 ± SE): 95.1 ± 15.3 µM; EC50 (JEG-3 cells [2]; [5]): 332 ± 44.1 µM
Cc1ccc(S(=O)(=O)OCC(F)(F)C(F)(F)C(F)(F)C(F)(F)F)cc1 [1H,1H-Nonafluoropentyl p-toluenesulfonate]	–	increased cell viability	306 ± 47.9 µM	reduced cellular proliferation	–	Viability ↑, lowest concentration at which the mean response value exceeded the mean control value ± 2*SD (rough binning) (JEG-3 cells [1]; JEG-3 cells, 24 h): 50 µM; Prolif ↓, lowest concentration at which the mean response value exceeded the mean control value ± 2*SD (rough binning) (JEG-3 cells [3]; JEG-3 cells): 400 µM; EC50 (JEG-3 cells [2]; [5]): 159 ± 17.7 µM
O=C([O-])C(F)(F)OC(F)(F)F.[Na+] [2,2-Difluoro-2-(trifluoromethoxy)acetate sodium salt]	–	–	–	increased cellular proliferation	50 µM	–
CCN(CC(=O)O)S(=O)(=O)C(F)(F)C(F)(F)C(F)(F)C(F)(F)C(F)(F)C(F)(F)C(F)(F)C(F)(F)F [2-(N-Ethylperfluorooctanesulfonamido)acetic acid]	–	reduced cell viability	–	–	50 µM	EC50 (JEG-3 cells [1]; Homo sapiens, JEG-3, 24 h, read-out: Viability EC50 ± SD, JEG-3 cells, 24 h exposure): 203 ± 44.7 µM; Viability ↓, lowest concentration at which the mean response value exceeded the mean control value ± 2*SD (rough binning) (JEG-3 cells [1]; JEG-3 cells, 24 h, decrease): 250 µM; minimal effective concentration (JEG-3 cells [3]; Homo sapiens, JEG-3, 24 h, read-out: Prolif ↓, lowest concentration at which the mean response value exceeded the mean control value ± 2*SD (rough binning)): 250 µM; EC50 (JEG-3 cells [3]; Homo sapiens, JEG-3, 24 h, read-out: Proliferation EC50 ± SD, JEG-3 cells, 24 h exposure, four-parameter fit, estimates meeting inclusion criteria): 204 ± 17.7 µM; EC50 (JEG-3 cells [3]; Homo sapiens, JEG-3, 24 h, read-out: proliferation EC50 ± SE, JEG-3 cells, 24 h): 204 ± 18 µM; minimal effective concentration (JEG-3 cells [2]; Homo sapiens, JEG-3, 24 h, read-out: MMP ↓, lowest concentration at which the mean response value exceeded the mean control value ± 2*SD (rough binning)): 150 µM; MMP relative to vehicle control (rough binning) (JEG-3 cells [2]; after 24 h, in at least one concentration): reduced MMP
O=C(O)C(F)(F)C(F)(F)C(F)(F)C(F)F [5H-Octafluoropentanoic acid]	354 ± 28.6 µM	–	334 ± 56.5 µM	–	–	–
O=S(=O)(O)CCC(F)(F)C(F)(F)C(F)(F)C(F)(F)C(F)(F)C(F)(F)F [6:2 Fluorotelomer sulfonic acid]	–	–	–	increased cellular proliferation	50 µM	EC50 (JEG-3 cells [2]; raw model output including fits that did not meet inclusion criteria, read-out: MMP EC50 ± SD (raw values)): 70608 ± 10 µM
O=C(O)C(F)(F)C(F)(F)C(F)(F)C(F)(F)C(F)(F)C(F)F [7H-Perfluoroheptanoic acid]	223 ± 60.2 µM	increased cell viability	294 ± 48.2 µM	reduced cellular proliferation	–	Viability ↑, lowest concentration at which the mean response value exceeded the mean control value ± 2*SD (rough binning) (JEG-3 cells [1]; JEG-3 cells, 24 h): 50 µM; Prolif ↓, lowest concentration at which the mean response value exceeded the mean control value ± 2*SD (rough binning) (JEG-3 cells [3]; JEG-3 cells): 400 µM
